Measured values published in patent EP0206747B1, “1,4-Dihydropyridine derivatives useful in the treatment of cardiovascular disorders, and a process for producing the derivatives” (WARNER-LAMBERT COMPANY, priority 1985, dated 1986).

System: Isolated Guinea Pig Atria
Assay: In vitro myocardial inotropic activity in isolated guinea pig atria
Assay type: cell-based, guinea pigs
Details: @ 10^-5M, isolated guinea pig left atria electrically stimulated at 1.5 Hz, PSS 30°C; for activation at 10 µM: Cavia porcellus, read-out: % Change in Myocardial Contractility (PSCI)
Method: Test for In Vitro Myocardial Inotropic Activity
in Isolated Guinea Pig Atria
Adult male guinea pigs weighing 300-400 g are reserpenized (2000 units i.p.) and, after ten minutes, are killed by cervical dislocation. The hearts are quickly removed and placed in a physiological salt solution (PSS) containing: 118 mM NaCI, 4.8 mM KCI, 2.4 mM CaCI, 1.2 mM MgS04, 1.0 mM NaH2P04, 11.1 m dextrose, and 27.2 mM NaHC03, maintained at pH 7.4 and 30°C. After removing all superficial blood, the hearts are perfused via the aorta to remove any blood from the coronary arteries. After five to ten minutes of perfusion, the left atria are dissected and mounted vertically in a 50 ml, water-jacketed bather containing PSS at 30°C and continuously oxygenated with 95% O2/5% CO2. The left atria are electrically stimulated at 1.5 Hz. The tissues are equilibrated for 30 minutes and washed with fresh PSS. The stimulation voltage is adjusted to 20% above the threshold and tension adjusted to Lmax (the muscle length at which tension development is maximal). The tissues are then equilibrated for an additional 30 minutes, after which the compounds to be examined are added to the tissue bather. […] The compounds are added in full or half-log concentration increments, usually over a concentration range of 1 x 10-^8 to 1 x 10-^4M. The muscles are generally allowed to assume a new steady-state contractile response before each subsequent addition of drug.
Using this procedure the inotropic activity of preferred compounds of the present invention is shown as found in the following Table 1. The reference calcium antagonist has also been tested for comparison.

Compound	activation at 10 µM	% Change in Myocardial Contractility (PSCI)
CCOC(=O)C1=C(C[S+]([O-])c2ccccc2)NC(C)=C(C#N)C1c1ccccc1C(F)(F)F (single isomer, unassigned) [Example 2 Isomer A, Ethyl 5-cyano-1,4-dihydro-6-methyl-2-[(phenylsulfinyl)methyl]-4-[2-(trifluoromethyl)phenyl]-3-pyridinecarboxylate]	33%	–
CCOC(=O)C1=C(C[S+]([O-])c2ccccc2)NC(C)=C(C#N)C1c1ccccc1C(F)(F)F (single isomer, unassigned) [Example 2 Isomer B, Ethyl 5-cyano-1,4-dihydro-6-methyl-2-[(phenylsulfinyl)methyl]-4-[2-(trifluoromethyl)phenyl]-3-pyridinecarboxylate]	–	+53%
CCOC(=O)C1=C(C[S+]([O-])c2ccccc2)NC(C)=C(C#N)C1c1cccc([N+](=O)[O-])c1 (stereo not shown) [Example 2B]	30%	–
CCOC(=O)C1=C(C[S+]([O-])c2ccccc2)NC(C)=C(C#N)C1c1ccccc1Cl (stereo not shown) [Example 2D]	26%	–
CCOC(=O)C1=C(CS(=O)(=O)c2ccccc2)NC(C)=C(C#N)C1c1ccccc1C(F)(F)F (stereo not shown) [Example 3A, Ethyl 5-cyano-1,4-dihydro-6-methyl-2-[(phenylsulfonyl)methyl]-4-[2-(trifluoromethyl)phenyl]-3-pyridinecarboxylate]	26%	–
CCOC(=O)C1=C(CS(=O)(=O)c2ccccc2C)NC(C)=C(C#N)C1c1ccccc1C(F)(F)F (stereo not shown) [Example 3C]	33%	–
CCOC(=O)C1=C(CS(=O)(=O)c2ccccc2Cl)NC(C)=C(C#N)C1c1ccccc1C(F)(F)F (stereo not shown) [Example 3D]	33%	–
